Source: US20240001019A1, “MBL-COATED SUBSTRATES HAVING ANTI-THROMBOGENIC PROPERTIES” (MIRAKI INNOVATION THINK TANK LLC, priority 2020, published 2024)

What was measured:
[1] = tested on: CD62P (platelet P-selectin); assay: Flow-cytometric analysis of platelet activation (CD62P on CD41a positive platelets); format: cell-based, human; details: for CD62P geometrical means of fluorescence intensity from TRAP-incubated samples: 35 μM TRAP, 20 min
[2] = Retention of coupled FcMBL on the membrane under flow (PBS/EDTA wash fractions); format: physicochemical; details: Lot 152-04052017, Devices #1-#3, serial 45 mL fractions
Experimental: The FcMBL protein concentration in each sample was determined using the Pierce 660 nm assay and an FcMBL standard curve.
Three Filtrivas from Lot 152-04052017 (Devices #1, #2, and #3) were selected for analysis of their respective PBS/EDTA wash fractions to determine the extent to which the FcMBL bound to the membrane, remains bound under flow conditions. The mass of protein obtained from five serial fractions of 45 mL, three fractions from the Blood Port Output and two fractions from the subsequent Wash Buffer, was determined. […] After the second Blood Port Output, the amount of FcMBL in the subsequent fractions was undetectable (data not shown).

Substance	CD62P geometrical means of fluorescence intensity from TRAP-incubated samples ([1]; 1st experiment)	CD62P geometrical means of fluorescence intensity from TRAP-incubated samples ([1]; 2nd experiment)	CD62P geometrical means of fluorescence intensity from TRAP-incubated samples ([1]; 3rd experiment)	CD62P geometrical means of fluorescence intensity, positive control ([1]; all experiments)	FcMBL coupled to the membrane under flow, PBS/EDTA washing [2]
thrombin receptor activating peptide [TRAP]	1376	209	350	> 200	
FcMBL: 383-amino acid human recombinant fusion protein: carbohydrate-binding and neck domains of MBL and Fc domain of human IgG1					stays bound under flow conditions
